Here are results for 29 compounds from patent US8796289B2 (AbbVie Inc., priority 2011, dated 2014).

A word on the Ki: it is a dissociation constant, usually derived from enzyme kinetics or from competition with a known ligand.

Chain of GST-tagged-Wee1 kinase (P30291 whole entry): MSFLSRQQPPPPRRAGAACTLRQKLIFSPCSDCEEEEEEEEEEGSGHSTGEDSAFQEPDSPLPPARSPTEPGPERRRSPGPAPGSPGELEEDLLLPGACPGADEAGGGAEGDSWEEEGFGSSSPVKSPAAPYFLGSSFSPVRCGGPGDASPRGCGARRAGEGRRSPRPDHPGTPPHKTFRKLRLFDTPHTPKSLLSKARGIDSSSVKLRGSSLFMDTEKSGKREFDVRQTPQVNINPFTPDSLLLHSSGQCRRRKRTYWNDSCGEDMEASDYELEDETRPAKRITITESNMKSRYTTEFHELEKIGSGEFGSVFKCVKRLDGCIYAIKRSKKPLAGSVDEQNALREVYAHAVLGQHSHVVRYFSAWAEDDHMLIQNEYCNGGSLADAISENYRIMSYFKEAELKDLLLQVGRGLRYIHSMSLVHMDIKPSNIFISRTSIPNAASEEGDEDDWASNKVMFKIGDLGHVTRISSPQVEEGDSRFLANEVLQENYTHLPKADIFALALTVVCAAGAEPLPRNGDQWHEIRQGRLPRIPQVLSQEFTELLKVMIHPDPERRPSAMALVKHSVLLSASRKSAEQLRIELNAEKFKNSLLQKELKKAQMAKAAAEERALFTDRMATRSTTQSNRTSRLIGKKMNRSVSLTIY

This assay has as its target GST-tagged-Wee1 kinase (Homo sapiens, UniProt P30291). Briefly: Wee1 time-resolved fluorescence equilibrium binding assay (displacement of Oregon Green-labeled ATP-competitive kinase probe). The procedure: Wee1 kinase was assayed using a time-resolved fluorescence equilibrium binding assay monitoring displacement of a rapidly reversible Oregon Green-labeled ATP-competitive kinase probe (N-(2-(2-(2-(4-(4-(5-chloro-4-(2-(1-hydroxycyclobutyl)thiazol-5-yl)-1H-pyrrolo[2,3-b]pyridin-2-yl)phenyl)piperazin-1-yl)ethoxy)ethoxy)ethyl)-2′,7′-difluoro-3′,6′-dihydroxy-3-oxo-3H-spiro[isobenzofuran-1,9′-xanthene]-5-carboxamide) by competitive Wee1 inhibitors.
In turn, `O=c1c2cnc(Nc3ccc(S(=O)(=O)N4CCOCC4)cc3)nc2c(-c2cccs2)nn1-c1ccccc1Cl` [Example 165, 6-(2-chlorophenyl)-2-{[4-(morpholin-4-ylsulfonyl)phenyl]amino}-8-(2-thienyl)pyrimido[4,5-d]pyridazin-5(6H)-one] yielded a Ki greater than 3140 nM. To `CC1CCCC(C)C1n1nc(-c2ccccn2)c2nc(Nc3ccc4c(c3)CNCC4(C)C)ncc2c1=O` (centres unmarked) [Example 331, 6-(2,6-dimethylcyclohexyl)-2-[(4,4-dimethyl-1,2,3,4-tetrahydroisoquinolin-7-yl)amino]-8-(pyridin-2-yl)pyrimido[4,5-d]pyridazin-5(6H)-one] belongs 180 nM; to `Cc1nn(-c2c(Cl)cccc2Cl)c(=O)c2cnc(Nc3ccc(N4CCN(CCCN(C)C)CC4)cc3)nc12` [Example 517, 6-(2,6-dichlorophenyl)-2-[(4-{4-[3-(dimethylamino)propyl]piperazin-1-yl}phenyl)amino]-8-methylpyrimido[4,5-d]pyridazin-5(6H)-one], 0.24 nM.

In turn, `C=CCn1nc(-c2ccco2)c2nc(Nc3ccc(N4CCN(C(C)C)CC4)c(OC)c3)ncc2c1=O` [Example 136, 6-allyl-8-(2-furyl)-2-{[4-(4-isopropylpiperazin-1-yl)-3-methoxyphenyl]amino}pyrimido[4,5-d]pyridazin-5(6H)-one] registered a Ki of 14 nM. To `CCc1nn(-c2c(Cl)cccc2Cl)c(=O)c2cnc(Nc3ccc(N4CCNC(=O)C4)cc3)nc12` [Example 470, 6-(2,6-dichlorophenyl)-8-ethyl-2-{[4-(3-oxopiperazin-1-yl)phenyl]amino}pyrimido[4,5-d]pyridazin-5(6H)-one] belongs 0.99 nM; to `CN1Cc2cc(Nc3ncc4c(=O)n(-c5c(Cl)cccc5Cl)nc(C(F)F)c4n3)ccc2C1(C)C` [Example 485, 6-(2,6-dichlorophenyl)-8-(difluoromethyl)-2-[(1,1,2-trimethyl-2,3-dihydro-1H-isoindol-5-yl)amino]pyrimido[4,5-d]pyridazin-5(6H)-one], 0.15 nM.

On to `CCc1nn(-c2c(Cl)cccc2Cl)c(=O)c2cnc(Nc3ccc(N4CCCN(C)CC4)c(C)c3)nc12` [Example 469, 6-(2,6-dichlorophenyl)-8-ethyl-2-{[3-methyl-4-(4-methyl-1,4-diazepan-1-yl)phenyl]amino}pyrimido[4,5-d]pyridazin-5(6H)-one], for which the Ki worked out at 0.63 nM. Take `CN1CCN(c2ccc(Nc3ncc4c(=O)n(-c5c(Cl)cccc5Cl)nc(-c5cccc(CN6CCCCC6)c5)c4n3)cc2)CC1` [Example 157, 6-(2,6-dichlorophenyl)-2-{[4-(4-methylpiperazin-1-yl)phenyl]amino}-8-[3-(piperidin-1-ylmethyl)phenyl]pyrimido[4,5-d]pyridazin-5(6H)-one]: affinity was put at a Ki of 0.05 nM.

In the case of `Cc1nn(-c2c(Cl)cccc2Cl)c(=O)c2cnc(Nc3cccc(N4CCN(CCCO)CC4)c3)nc12` [Example 510, 6-(2,6-dichlorophenyl)-2-({3-[4-(3-hydroxypropyl)piperazin-1-yl]phenyl}amino)-8-methylpyrimido[4,5-d]pyridazin-5(6H)-one], the affinity, expressed as Ki, was 1.1 nM.

`CN1CCN(c2ccc(Nc3ncc4c(=O)n(-c5ccccc5Cl)nc(-c5ccncn5)c4n3)cc2)CC1` [Example 178, 6-(2-chlorophenyl)-2-{[4-(4-methylpiperazin-1-yl)phenyl]amino}-8-(pyrimidin-4-yl)pyrimido[4,5-d]pyridazin-5(6H)-one] returned an inhibitory constant (Ki) of 2 nM. To `CCCc1nn(-c2ccccc2)c(=O)c2cnc(Nc3ccc(N4CCN(C)CC4)cc3)nc12` [Example 17, 2-{[4-(4-methylpiperazin-1-yl)phenyl]amino}-6-phenyl-8-propylpyrimido[4,5-d]pyridazin-5(6H)-one] belongs 36 nM; to `O=c1c2cnc(Nc3ccc4c(c3)CNCC43CC3)nc2c(-c2ccncc2)nn1-c1ccncc1Cl` [Example 383, 6-(3-chloropyridin-4-yl)-2-(2′,3′-dihydro-1′H-spiro[cyclopropane-1,4′-isoquinolin]-7′-ylamino)-8-(pyridin-4-yl)pyrimido[4,5-d]pyridazin-5(6H)-one], 1.1 nM; to `CC1(C)CNCc2cc(Nc3ncc4c(=O)n(-c5c(Cl)cccc5Cl)nc(-c5ccccn5)c4n3)ccc21` [Example 263, 6-(2,6-dichlorophenyl)-2-[(4,4-dimethyl-1,2,3,4-tetrahydroisoquinolin-7-yl)amino]-8-(pyridin-2-yl)pyrimido[4,5-d]pyridazin-5(6H)-one], 0.3 nM. To `CN1CCN(c2ccc(Nc3ncc4c(=O)n(-c5ccccc5)nc(CCc5ccccc5)c4n3)cc2)CC1` [Example 9, 2-{[4-(4-methylpiperazin-1-yl)phenyl]amino}-6-phenyl-8-(2-phenylethyl)pyrimido[4,5-d]pyridazin-5(6H)-one] belongs 61 nM; to `Cc1cc(Nc2ncc3c(=O)n(-c4ccccc4C)nc(-c4ccccc4)c3n2)ccc1N1CCN(C(C)C)CC1` [Example 170, 2-{[4-(4-isopropylpiperazin-1-yl)-3-methylphenyl]amino}-6-(2-methylphenyl)-8-phenylpyrimido[4,5-d]pyridazin-5(6H)-one], 0.7 nM; to `Cc1cccc(-c2nn(-c3ccccc3)c(=O)c3cnc(Nc4ccc(N5CCN(C)CC5)cc4)nc23)c1` [Example 50, 8-(3-methylphenyl)-2-{[4-(4-methylpiperazin-1-yl)phenyl]amino}-6-phenylpyrimido[4,5-d]pyridazin-5(6H)-one], 5 nM. To `CCCc1nn(CCC#N)c(=O)c2cnc(Nc3ccc(N4CCN(C)CC4)cc3)nc12` [Example 21, 3-[2-{[4-(4-methylpiperazin-1-yl)phenyl]amino}-5-oxo-8-propylpyrimido[4,5-d]pyridazin-6(5H)-yl]propanenitrile] belongs 350 nM; to `CNC(=O)c1cccc(-c2nn(-c3c(Cl)cccc3Cl)c(=O)c3cnc(Nc4ccc(N5CCN(C)CC5)cc4)nc23)c1` [Example 191, 3-[6-(2,6-dichlorophenyl)-2-{[4-(4-methylpiperazin-1-yl)phenyl]amino}-5-oxo-5,6-dihydropyrimido[4,5-d]pyridazin-8-yl]-N-methylbenzamide], 0.03 nM; to `CN1CCN(c2ccc(Nc3ncc4c(=O)n(-c5c(Cl)cncc5Cl)nc(-c5cncs5)c4n3)cc2)CC1` [Example 360, 6-(3,5-dichloropyridin-4-yl)-2-{[4-(4-methylpiperazin-1-yl)phenyl]amino}-8-(1,3-thiazol-5-yl)pyrimido[4,5-d]pyridazin-5(6H)-one], 2.4 nM.

In turn, `Cc1nn(-c2c(Cl)cccc2Cl)c(=O)c2cnc(Nc3cccc(N4CCN(C5CCC5)CC4)c3)nc12` [Example 508, 2-{[3-(4-cyclobutylpiperazin-1-yl)phenyl]amino}-6-(2,6-dichlorophenyl)-8-methylpyrimido[4,5-d]pyridazin-5(6H)-one] returned a Ki of 2 nM. With `Cc1nn(-c2c(Cl)cncc2Cl)c(=O)c2cnc(Nc3ccc4c(c3)CNCC43CC3)nc12` [Example 447, 6-(3,5-dichloropyridin-4-yl)-2-(2′,3′-dihydro-1′H-spiro[cyclopropane-1,4′-isoquinolin]-7′-ylamino)-8-methylpyrimido[4,5-d]pyridazin-5(6H)-one], the Ki turned out to be 0.4 nM. To `CN1CCN(c2ccc(Nc3ncc4c(=O)n(-c5ccccc5)nc(-c5cccnc5)c4n3)cc2)CC1` [Example 100, 2-{[4-(4-methylpiperazin-1-yl)phenyl]amino}-6-phenyl-8-(pyridin-3-yl)pyrimido[4,5-d]pyridazin-5(6H)-one] belongs 14 nM. To `CN1CCN(c2ccc(Nc3ncc4c(=O)n(-c5c(Cl)cccc5Cl)nc(-c5nccn5C)c4n3)cc2)CC1` [Example 354, 6-(2,6-dichlorophenyl)-8-(1-methyl-1H-imidazol-2-yl)-2-{[4-(4-methylpiperazin-1-yl)phenyl]amino}pyrimido[4,5-d]pyridazin-5(6H)-one] belongs 740 nM; to `Nc1ccc(N2CCN(c3ncc4c(=O)n(-c5ccncc5)nc(-c5ccccn5)c4n3)CC2)cc1` [Example 218, 2-(4-(4-aminophenyl)piperazin-1-yl)-8-(pyridin-2-yl)-6-(pyridin-4-yl)pyridazino[4,5-d]pyrimidin-5(6H)-one], 480 nM. In turn, `CC1(C)CNCc2cc(Nc3ncc4c(=O)n(-c5ccccn5)nc(-c5ccccn5)c4n3)ccc21` [Example 264, 2-[(4,4-dimethyl-1,2,3,4-tetrahydroisoquinolin-7-yl)amino]-6,8-di(pyridin-2-yl)pyrimido[4,5-d]pyridazin-5(6H)-one] displayed a Ki of 12 nM. To `Cn1ccnc1-c1nn(-c2c(Cl)cccc2Cl)c(=O)c2cnc(Nc3ccc4c(c3)CNCC43CC3)nc12` [Example 356, 6-(2,6-dichlorophenyl)-2-(2′,3′-dihydro-1′H-spiro[cyclopropane-1,4′-isoquinolin]-7′-ylamino)-8-(1-methyl-1H-imidazol-2-yl)pyrimido[4,5-d]pyridazin-5(6H)-one] belongs 1 nM; to `CN(C)Cc1ccc(Nc2ncc3c(=O)n(-c4ccccc4Cl)nc(-c4ccccc4)c3n2)cc1` [Example 204, 6-(2-chlorophenyl)-2-({4-[(dimethylamino)methyl]phenyl}amino)-8-phenylpyrimido[4,5-d]pyridazin-5(6H)-one], 2 nM; to `O=c1c2cnc(Nc3ccc(N4CCNCC4)cc3)nc2c(-c2cnccn2)nn1-c1c(Cl)cccc1Cl` [Example 220, 6-(2,6-dichlorophenyl)-2-{[4-(piperazin-1-yl)phenyl]amino}-8-(pyrazin-2-yl)pyrimido[4,5-d]pyridazin-5(6H)-one], 0.4 nM. Compound `C=CCn1nc(-c2ccccc2)c2nc(Nc3ccc(N4CCCC4=O)cc3)ncc2c1=O` [Example 142, 6-allyl-2-{[4-(2-oxopyrrolidin-1-yl)phenyl]amino}-8-phenylpyrimido[4,5-d]pyridazin-5(6H)-one] came in with a Ki of 57 nM.
